Measurements reported in US12152012B2, “BRAG2 inhibitors and applications thereof” (CENTRE NATIONAL DE LA RECHERCHE SCIENTIFIQUE, priority 2018, dated 2024).

Tests used:
[1] = system: TGN46 (trans-Golgi network marker) in Hela cells; assay: Immunostaining and confocal microscopy of Hela cells; format: cell-based, human; conditions: 50 μM
BRAG2 (BRAG2^Sec7PH) = target: T1, BRAG2 (BRAG2^Sec7PH) (Homo sapiens, UniProt Q6DN90); assay: Nucleotide exchange kinetics on liposomes, activation of myristoylated Arf1; format: biochemical
T1 construct: human BRAG2^Sec7 (390-594) and BRAG2^Sec7PH (390-811); made in house
Procedure: The effect of Bragsin1 on the GEF efficiency of representative human ArfGEFs was evaluated by fluorescence kinetics using highly purified recombinant Arf GTPases and ArfGEFs. In a first series of assays, the Sec7 domains of BIG1, a Golgi ArfGEF, and of ARNO, EFA6a and BRAG2, which function at the plasma membrane, were used. When tested in solution, Bragsin1 had no effect on the activation of Arf1 by any of these Sec7 domains (FIGS. 2a and 14). Separately, we reconstituted the activation of myristoylated Arf1 by the same ArfGEFs on liposomes using ArfGEF constructs that contain a membrane-binding domain (DCB-HUS domain for BIG1, PH domains for the other GEFs). […] BRAG2 activates several Arf isoforms, including the plasma membrane-located Arf6 isoform. […] Bragsin1 and Bragsin2 have the same IC50 towards BRAG2 ([…]) according to dose-response analysis, confirming that Bragsin1 and Bragsin2 can be used interchangeably (FIG. 2d). The specific inhibition of BRAG2 by Bragsin in vitro predicts that BRAG2 silencing by siRNA should yield the same phenotype as treatment by the small molecule. Silencing of BRAG2 induced the redistribution of TGN46 into tubular or punctate structures, which phenocopied the effects induced by Bragsin (FIGS. 2e, 17 and 18). […] Silencing of ARNO, which is located at the plasma membrane, had no effect on TGN46 distribution. Overexpression of BRAG2-mCherry rescued the dispersion of the TGN46 structure induced by Bragsin, which is consistent with the silencing experiments (FIG. 2f). Bragsin is a specific inhibitor of the ArfGEF BRAG2 in vitro and in cells according to these experiments. These oexperiments identify a mechanism of inhibition that requires the membrane to manifests itself.
Bovine Δ17Arf1 and human Δ13Arf6, full-length myristoylated Arf1 and Arf6, human BRAG2^Sec7 (390-594) and BRAG2^Sec7PH (390-811), human EFA6^Sec7 (527-727) and EFA6^Sec7PHCt (527-1024), ARNO^Sec7 (50-256), BIG1^Sec7 (691-889), BIG1^DcbHusSec7 (2-888) and ARNO^Sec7PH (50-399) were expressed and purified as in (Benabdi, S. et al. Family-wide Analysis of the Inhibition of Arf Guanine Nucleotide Exchange Factors with Small Molecules: Evidence of Unique Inhibitory Profiles. Biochemistry 56, 5125-5133 (2017)) and references therein. BRAG2^Sec7PH mutants were purified as the wild type protein. Purification of human full-length Rac1 carrying a 6xHis tag in C-terminus and human TRIO^DH1PH1 (1232-1550) was described in (Peurois, F. et al. Characterization of the activation of small GTPases by their GEFs on membranes using artificial membrane tethering. Biochem J 474, 1259-1272 (2017)).
Lipids (of natural origin) were from Avanti Polar Lipids, except NBD-PE from Sigma. Liposomes were prepared as described in (Aizel, K. et al. Integrated conformational and lipid-sensing regulation of endosomal ArfGEF BRAG2. PLOS Biol 11, e1001652 (2013)) and extruded at 0.2 μm. For the Arf GEF specificity studies, liposomes contained 48% phosphatidylcholine (PC), 20% phosphatidylethanolamine (PE), 30% phosphatidylserine (PS) and 2% phosphatidylinositol-4,5-bisphosphate (PIP2). For Rac activation assay, liposomes contained 43% PC, 20% PE, 10% PS, 20% cholesterol, 2% PIP2, 5% NiNTA lipids and 0.2% NBD-PE. To exclude aggregation or disruption of the liposomes, their size distribution was controlled before and after experiments by dynamic light scattering as described in (Benabdi, S. et al. Biochemistry 56, 5125-5133 (2017)). Dose-response and flotation assays were carried out with liposomes containing 37.9% PC, 20% PE, 20% PS, 2% PIP2, 20% cholesterol and 0.1% NBD-PE. Flotation assays were carried out as in 18.
Nucleotide exchange kinetics were monitored by tryptophan fluorescence with excitation/emission wavelengths of 292/340 nm using a Cary Eclipse fluorimeter (Varian) at 37° C. and under continuous stirring as described in ^50,51. […]

T1 sequence (Q6DN90 512-933): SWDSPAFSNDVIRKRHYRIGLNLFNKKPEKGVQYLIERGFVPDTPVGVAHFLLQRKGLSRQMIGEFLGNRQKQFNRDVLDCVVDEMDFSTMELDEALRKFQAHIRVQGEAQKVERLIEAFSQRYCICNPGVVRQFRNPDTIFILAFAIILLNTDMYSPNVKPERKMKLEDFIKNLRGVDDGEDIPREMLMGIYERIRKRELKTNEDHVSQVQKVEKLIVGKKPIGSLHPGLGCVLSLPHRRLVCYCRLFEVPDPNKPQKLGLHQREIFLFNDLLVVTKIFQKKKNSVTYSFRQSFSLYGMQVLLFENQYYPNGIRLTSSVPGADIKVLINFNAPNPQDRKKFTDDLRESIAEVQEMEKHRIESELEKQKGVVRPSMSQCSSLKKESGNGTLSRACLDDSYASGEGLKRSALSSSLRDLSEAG

SMILES	Dispersion of TGN46 marker [1]	Inhibition of BRAG2 in the presence of liposomes (BRAG2 (BRAG2^Sec7PH); 50 μM compound vs DMSO, myristoylated Arf1, liposomes)	Biological activity of hydrated derivative (BRAG2 (BRAG2^Sec7PH); derivative formed from Bragsin1 in aqueous solution)
COc1ccc2oc(C(F)(F)F)cc(=O)c2c1C(=O)O [Compound 6, 6-methoxy-4-oxo-2-(trifluoromethyl)-4H-chromene-5-carboxylic acid]	not capable to disperse	–	–
COc1ccc2oc(C(F)(F)F)cc(=O)c2c1C=O [Compound 5, 6-methoxy-4-oxo-2-(trifluoromethyl)-4H-chromene-5-carbaldehyde]	less effect	–	–
COc1cc(OC)c2oc(C(F)(F)F)cc(=O)c2c1[N+](=O)[O-] [Bragsin3, 6,8-dimethoxy-5-nitro-2-(trifluoromethyl)-4H-chromen-4-one]	disperses	strongly inhibits	–
Cc1ccc2c(c1[N+](=O)[O-])C(=O)CC(O)(C(F)(F)F)O2 (stereo not drawn) [Compound 13, 2-hydroxy-6-methyl-5-nitro-2-(trifluoromethyl)chroman-4-one]	–	–	biologically inactive
COc1ccc2oc(C(F)(F)F)cc(=O)c2c1 [Compound 3, 6-methoxy-2-(trifluoromethyl)-4H-chromen-4-one]	not capable to disperse	–	–
